Entries after “also recorded” stand apart in the source; their conditions may differ.
What was measured:
[1] = tested on: cognitive impairment induced by Aβ1-40; assay: Morris water maze test in rats microinjected with Aβ1-40 fibrils; assay type: in vivo, rat
Experimental: Animals and treatment protocol. All animal procedures were approved by the Animal Care and Use Committee of Cleveland Clinic. Animals were housed the Institutional Biological Rodent Unit on a 12/12 h light/dark cycle with water and food pellets available ad libitum. Adult male Sprague-Dawley (Charles River, Wilmington, Mass.) rats weighing 200-250 g were used, and all experiments were performed during the light cycle.
(§1) Animals were divided into several groups ([…]). The Aβ1-40 group received bilateral intracerebral microinjection of Aβ1-40 fibrils once and saline intraperitoneally (i.p.) daily for 14 days. The Aβ1-40+MDA7 group received bilateral intracerebral microinjection of Aβ1-40 fibrils once and 15 mg/kg MDA7 i.p. daily for 14 days. Other cohorts received smaller doses of MDA7 (5 mg/kg or 1.5 mg/kg) i.p. daily for 14 days to determine the dose-response characteristics for MDA7. In other groups, AM630 (a CB2 antagonist) 5 mg/kg i.p. was administered daily for 14 days either alone (Aβ1-40+AM630 group) or 15 min prior to MDA7 (15 mg/kg i.p.) administration (Aβ1-40+MDA7+AM630 group) to rats injected with β1-40 fibrils. MDA7 group and control group received bilateral intracerebral microinjection of artificial cerebrospinal fluid (130 mM NaCl, 2.6 mM KCl. 4.3 mM MgCl2 and 1.8 mM CaCl2) once and 15 mg/kg MDA7 or saline i.p. daily for 14 days, respectively. Intraperitoneal administration of AM630, MDA7 or saline started on the same day after intracerebral microinjection of Aβ1-40. All drugs were prepared coded. Decoding was performed at the end of all experiments.
Microinjection of amyloid fibrils into the hippocampal CA1 area. Rats were anesthetized with sodium pentobarbital (45 mg/kg i.p.) and restrained in a stereotaxic apparatus. Aβ1-40 fibrils were formed as described previously. Chacon, et al., Mol Psychiatry 9(10), 953-61 (2004), Aβ1-40 fibrils (10 μg/3 μl) or 3 μl of artificial cerebrospinal fluid were injected stereotaxically and bilaterally into each hippocampus (coordinates; Bregma −3.5 mm anteroposterior, ±2.0 mm mediolateral, and −3.0 mm dorsoventral) using a 10 μl Hamilton syringe with a 27 G stainless steel needle at a rate of 0.5 μl/min. This experimental model has been used for studying AD. Ahmed, et al., Neuroscience 169(3), 1296-306 (2010).
Morris water maze test. A cohort of rats (n=10 per group) was tested 15 days after surgery as described by Chacon et al. (ibid). Testing was conducted in all groups at the same time of the day. The experimental apparatus consisted of a circular pool (120 cm in diameter, 45 cm high). An invisible platform (15 cm in diameter, 35 cm high) was placed 1.5 cm below the surface of the water. The water temperature was kept at 24-28° C. The pool was located in a test room, and many clues external to the maze were visible from the pool, which could be used by the rats for spatial orientation. The position of the cues was kept constant throughout the task. Each rat underwent four trials per day for five days. During each trial (memory acquisition), the rats were placed randomly at one of four fixed starting points and were allowed to swim for 120 s or until they escaped from the water by reaching the platform. The platform was located in the same position throughout the test in the middle of one quadrant. The start location was moved to a different quadrant in each trial so that no single start location was used in consecutive trials. In each training session, the latency to escape to the hidden platform was recorded. After the rats reached the platform, they were allowed to rest there for 20 seconds, and they then were removed from the pool. An inter-trial interval of at least 4 minutes was used to ensure that each rat's performance was not impaired by fatigue. After completing four trials, the rats were removed from the pool, dried and returned to their home cage. […]

Aβ1-40 = assay: Clearance of Aβ1-40 injected in the hippocampal CA1 area (immunofluorescence); assay type: in vivo, rat; conditions: Aβ1-40-injected rats, 15 mg/kg per day for 14 days; hippocampal CA1
Experimental: as §1
(§2) Microinjection of amyloid fibrils into the hippocampal CA1 area. Rats were anesthetized with sodium pentobarbital (45 mg/kg i.p.) and restrained in a stereotaxic apparatus. Aβ1-40 fibrils were formed as described previously. […]
(§3) Immunostaining. […] Three to six sections from each rat were randomly selected and were analyzed using Leica DMLB fluorescence microscope (Leica Microsystems Wetzlar GmbH, Germany) by one investigator, who was blinded to the origin of tissue being examined. Images were quantified using MCID Core software version 7.0 (InterFocus Imaging Ltd, Cambridge, England).

rCB1 = rCB1 (Rattus norvegicus, UniProt P20272); conditions: cited from earlier work
Sequence of rCB1 (P20272 whole entry): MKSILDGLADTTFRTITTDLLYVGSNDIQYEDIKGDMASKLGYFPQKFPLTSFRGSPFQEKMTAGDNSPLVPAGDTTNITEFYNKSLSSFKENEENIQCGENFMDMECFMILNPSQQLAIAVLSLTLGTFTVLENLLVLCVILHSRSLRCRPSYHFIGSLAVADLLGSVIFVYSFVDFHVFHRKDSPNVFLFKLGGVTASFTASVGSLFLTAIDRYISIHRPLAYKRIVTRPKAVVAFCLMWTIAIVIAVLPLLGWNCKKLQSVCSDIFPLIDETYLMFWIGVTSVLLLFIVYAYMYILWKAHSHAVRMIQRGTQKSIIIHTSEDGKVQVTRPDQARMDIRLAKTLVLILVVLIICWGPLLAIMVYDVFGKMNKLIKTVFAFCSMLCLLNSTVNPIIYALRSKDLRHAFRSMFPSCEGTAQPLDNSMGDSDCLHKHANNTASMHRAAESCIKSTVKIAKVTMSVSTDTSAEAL

GFAP = GFAP immunoreactivity in hippocampal CA1 area (immunostaining, immunoblotting); assay type: in vivo, rat
Experimental: as §1, §2
as §3, with “England). […]” for “England).”

For CC1(Cc2ccccc2)COc2cc(C(=O)N3CCCCC3)ccc21 (stereo not shown) [MDA7, 3-benzyl-3-methyl-2,3-dihydrobenzofuran-6-carboxylic acid-piperidine amide], the “escape latency / memory enhancement in the Morris water maze test” value ([1]; Aβ1-40 fibril-injected rats, 1.5 mg/kg i.p. daily for 14 days) was “did not result in any significant memory enhancement”, the “escape latency / memory enhancement in the Morris water maze test” value ([1]; Aβ1-40 fibril-injected rats, 5 mg/kg i.p. daily for 14 days) was “limited only to days 3 and 5” and the “escape latency in the Morris water maze test” value ([1]; Aβ1-40 fibril-injected rats, 15 mg/kg i.p. daily for 14 days, vs i.p. saline, days 3-5) was “significantly shorter escape latency”. For the same molecule, the “probe trial, time spent in the target quadrant” value ([1]; Aβ1-40 fibril-injected rats, 15 mg/kg i.p. for 14 days, vs i.p. saline, day 6, 15 mg/kg) was “spent the longest time in the target quadrant; also recorded: significantly longer time in the target quadrant”, the “escape latency, treatment alone” value ([1]; rats microinjected with artificial cerebrospinal fluid, 15 mg/kg for 14 days vs saline i.p.) was “no significant difference” and the “clearance of injected Aβ1-40” value (Aβ1-40) was “induced removal of Aβ1-40”. The “EC50 at rCB1” value (rCB1) was “not active”, the GFAP immunofluorescence intensity (GFAP; Aβ1-40-injected rats, 15 mg/kg i.p. for 14 days, vs saline, hippocampal CA1) was “significantly less” and the “GFAP protein expression (immunoblot)” value (GFAP; Aβ-injected rats, 14 days i.p. (15 mg/kg), vs saline, hippocampal CA1) was “significantly attenuated”. The “GFAP expression, treatment alone” value (GFAP; rats without Aβ1-40, compared to control rats) was “no significant effect”.

From patent US11160798B2, “Neuroprotective CB2 receptor agonists” (THE CLEVELAND CLINIC FOUNDATION, priority 2012, dated 2021)
